According to ChEMBL document CHEMBL1155084 (J Med Chem, 2008):

Experiments:
[1] = target: Mitogen-activated protein kinase 14 (Homo sapiens, UniProt Q16539); test: Inhibition of p38alpha
Blood = test: Inhibition of TNFalpha release in human whole blood; type: functional, tissue-based

Sequence of Mitogen-activated protein kinase 14 (Q16539 whole entry): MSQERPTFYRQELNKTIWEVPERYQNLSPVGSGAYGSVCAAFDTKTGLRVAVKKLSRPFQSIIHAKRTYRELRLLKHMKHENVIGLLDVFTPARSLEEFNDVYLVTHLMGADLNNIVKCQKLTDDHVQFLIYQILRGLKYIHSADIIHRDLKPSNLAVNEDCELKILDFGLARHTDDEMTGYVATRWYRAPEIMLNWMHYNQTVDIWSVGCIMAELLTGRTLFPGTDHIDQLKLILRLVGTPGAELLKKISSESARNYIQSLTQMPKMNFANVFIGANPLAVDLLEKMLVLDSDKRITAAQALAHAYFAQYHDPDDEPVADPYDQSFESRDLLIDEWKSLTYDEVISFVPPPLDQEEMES

| Structure (SMILES) | IC50 [1] [nM] | IC50 (Blood) [nM] |
| --- | --- | --- |
| CSc1nc(-c2cccc(C(F)(F)F)c2)c(-c2ccnc(NC(C)c3ccccc3)c2)[nH]1 (stereo not given) | 199 | 12200 |
| COCCn1c(SC)nc(-c2ccc(F)cc2)c1-c1ccnc(NC2CCCC[C@H]2O)c1 (stereo not given in full) | 211 |  |
| CSc1nc(-c2ccc(F)cc2)c(-c2ccnc(NCc3ccc(F)cc3)c2)[nH]1 | 173 | 22200 |
| CSc1nc(-c2ccnc(NC3CCOCC3)c2)c(-c2ccc(F)cc2)[nH]1 | 5 |  |
| CSc1nc(-c2ccc(F)cc2)c(-c2ccnc(NC(C)CC(C)C)c2)[nH]1 (stereo not given) | 26 | 700 |
| COCCn1c(SC)nc(-c2ccc(F)cc2)c1-c1ccnc(N[C@H](C)CO)c1 | 485 |  |
| CSc1nc(-c2ccc(F)cc2)c(-c2ccnc(NCc3ccccc3)c2)[nH]1 | 139 |  |
| CSc1nc(-c2ccc(F)cc2)c(-c2ccnc(NCc3ccncc3)c2)[nH]1 | 119 | 6220 |
| CCC(CO)Nc1cc(-c2[nH]c(SC)nc2-c2ccc(F)cc2)ccn1 (stereo not given) | 10 | 239 |
| CSc1nc(-c2ccc(F)cc2)c(-c2ccnc(N[C@@H](C)C3CCCCC3)c2)[nH]1 | 153 | 27600 |
| CSc1nc(-c2ccc(F)cc2)c(-c2ccnc(OCc3cccs3)c2)[nH]1 | 424 | 38400 |
| Fc1cc(-c2[nH]c(SCc3ccccc3)nc2-c2cccc(C(F)(F)F)c2)ccn1 | 1950 | 83600 |
| COCCn1c(SC)nc(-c2ccc(F)cc2)c1-c1ccnc(Nc2ccccc2)c1 | 51 |  |
| COCCn1c(SC)nc(-c2ccc(F)cc2)c1-c1ccnc(NCC(C)O)c1 (stereo not given) | 146 | 6380 |
| Fc1ccc(-c2nc(SCc3ccccc3)[nH]c2-c2ccnc(Cl)c2)cc1 | 2900 | 50900 |
| CSc1nc(-c2ccc(F)cc2)c(-c2ccnc(NCc3ccc(C)o3)c2)[nH]1 | 113 | 7430 |
| CSc1nc(-c2ccnc(OCC3CCCO3)c2)c(-c2ccc(F)cc2)[nH]1 (stereo not given) | 542 | 11200 |

| Structure (SMILES) | IC50 [1] [nM] | IC50 (Blood) [nM] |
| --- | --- | --- |
| CSc1nc(-c2cccc(C(F)(F)F)c2)c(-c2ccnc(NCC(C)c3ccccc3)c2)[nH]1 (stereo not given) | 93 | 23000 |
| CSc1nc(-c2cccc(C(F)(F)F)c2)c(-c2ccnc(NCc3cccs3)c2)[nH]1 | 239 | 26800 |
| CSc1nc(-c2ccc(F)cc2)c(-c2ccnc(NC3CCC(C)CC3)c2)[nH]1 (mixture of isomers) | 20 | 5400 |
| CSc1nc(-c2cccc(C(F)(F)F)c2)c(-c2ccnc(NCCCO)c2)[nH]1 | 61 | 5190 |
| CSc1nc(-c2ccc(F)cc2)c(-c2ccnc(F)c2)[nH]1 | 559 | 29900 |
| CSc1nc(-c2ccc(F)cc2)c(-c2ccnc(OC(C)c3ccccc3)c2)[nH]1 (stereo not given) | 639 | 44300 |
| CSc1nc(-c2ccc(F)cc2)c(-c2ccnc(N[C@H](C)C3CCCCC3)c2)[nH]1 | 9 | 3300 |
| CCSc1nc(-c2ccc(F)cc2)c(-c2ccnc(Cl)c2)[nH]1 | 372 | 36000 |
| CSc1nc(-c2ccc(F)cc2)c(-c2ccnc(N[C@H]3CC[C@@H](C)CC3)c2)[nH]1 | 31 | 3680 |
| CSc1nc(-c2cccc(C(F)(F)F)c2)c(-c2ccnc(N[C@H](C)C3CCCCC3)c2)[nH]1 | 36 | 9890 |
| CSc1nc(-c2ccnc(NCCCO)c2)c(-c2ccc(F)cc2)[nH]1 | 15 | 680 |
| COCCn1c(SC)nc(-c2ccc(F)cc2)c1-c1ccnc(NC2CCOCC2)c1 | 38 | 5880 |
| CSc1nc(-c2ccc(F)cc2)c(-c2ccnc(N[C@H]3CC[C@H](C)CC3)c2)[nH]1 | 15 | 15800 |
| CSc1nc(-c2cccc(C(F)(F)F)c2)c(-c2ccnc(N[C@H]3CC[C@H](O)CC3)c2)[nH]1 | 11 | 1680 |
| Fc1ccc(-c2nc(SCc3ccccc3)[nH]c2-c2ccnc(F)c2)cc1 | 258 |  |
| CCSc1nc(-c2ccc(F)cc2)c(-c2ccnc(F)c2)[nH]1 | 213 |  |
| CSc1nc(-c2ccc(F)cc2)c(-c2ccnc(Cl)c2)[nH]1 | 1040 |  |
